According to patent US20160264925A1, “Reagents for Lysis of Bacterial Cells” (Roche Diagnostics Operations, Inc., priority 2009, published 2016):

How the values were obtained:
[1] = test system: Escherichia coli BMTU 3294; assay: Lysis of microbial cells in suspension, microscopic assessment (SYTO 9 staining): Gram-negative; format: cell-based; settings: for lysis of Gram-negative cell walls, summary in words: reagent and concentration as in Tables 1 and 2 (Example 4)
Description: (§1) Cell suspensions containing between about 10^7 and about 10^8 cells/ml were prepared.
(§2) The LIVE/DEAD® BacLight Bacterial Viability Kits supplied by Invitrogen utilize mixtures of the SYTO® 9 green-fluorescent nucleic acid stain (Invitrogen) and the red-fluorescent nucleic acid stain, propidium iodide. These stains differ both in their spectral characteristics and in their ability to penetrate healthy bacterial cells. When used alone, the SYTO® 9 stain generally labels all bacteria in a population—those with intact membranes and those with damaged membranes. In contrast, propidium iodide penetrates only bacteria with damaged membranes, causing a reduction in the SYTO® 9 stain fluorescence when both dyes are present.
(§3) Each mixture was incubated for 15 min at 56° C.
(§4) For the lysis experiments, all possible combinations of lysis buffers L1.1 to L11.1 with cell suspensions (A), (B), and (C) were examined.
(§5) An incubated cell suspension with bacteria was scored as a “positive” lysate if in the incubated mixture SYTO® 9 stainable morphological structures corresponding to the respective bacterial cells were not detectable. Otherwise, when SYTO® 9 stainable morphological structures were still present, the incubated cell suspension was scored as “negative”. In an analogous way, a cell suspension with yeast cells was scored, however based on Calcofluor™ White M2R staining.
(§6) In each experiment a direct comparison was made using the fluorescent label on an untreated but similarly diluted cell suspension as a reference. In order to exclude any influence of a compound in the lysis reagents on fluorescence, any presence or absence of morphological structures corresponding to the respective microbial cells was verified using light microscopy.

[2] = test system: Staphylococcus carnosus BMTU 7329; assay: Lysis of microbial cells in suspension, microscopic assessment (SYTO 9 staining): Gram-positive; format: cell-based; settings: for lysis of Gram-positive cell walls, summary in words: reagent and concentration as in Tables 1 and 2 (Example 4)
Description: as §1, §2, §3, §4, §5, §6

[3] = about 2.25 M in the mixture with the bacterial suspension

Compound | destruction of Gram-negative cell walls ([1]; 247.5 mM (or lower)) | destruction of Gram-positive cell walls ([2]; 247.5 mM (or lower)) | lysis of Gram-negative cell walls, summary in words [1] | lysis of Gram-positive cell walls, summary in words [2] | destruction of Gram-negative cell walls ([1]; 375 mM in the mixture) | destruction of Gram-negative cell walls [1, 3] | destruction of Gram-positive cell walls ([2]; 375 mM in the mixture) | destruction of Gram-positive cell walls [2, 3] | other results
1-butyl-3-methyl-imidazolium-octylsulfate | falls short of destroying bacterial cell walls | falls short of destroying bacterial cell walls |  |  |  |  |  |  | destruction of Gram-negative cell walls ([1]; higher than 247.5 mM and up to 375 mM): capable of destroying the cell walls of Gram-negative bacteria; destruction of Gram-positive cell walls ([2]; any concentration tested): no concentration was found
1-butyl-3-methyl-imidazolium-2(2-methoxyethoxy)ethylsulfate [ECOENG™41M] |  |  | destroy the cell walls of both Gram-positive and Gram-negative cells | destroy the cell walls of both Gram-positive and Gram-negative cells |  |  |  |  | concentration required to destroy Gram-negative cell walls together with Gram-positive, relative to BMIM-SCN (about 2.25 M in the mixture) ([1]; lysis reagent L2.1): a quarter of this concentration; concentration required to destroy Gram-positive cell walls, relative to BMIM-SCN (about 2.25 M in the mixture) ([2]; lysis reagent L2.1): a quarter of this concentration
Cc1ccc(S(=O)(=O)[O-])cc1.Cc1ccc(S(=O)(=O)[O-])cc1.Cn1cc[n+](CCCC[n+]2ccn(C)c2)c1 [MITS, 1-methyl-1-[4-(3-methyl-3H-imidazol-1-ium)-but-1-yl]-3H-imidazolium-di(toluylsulfate)] | neither Gram-negative nor Gram-positive cell walls were destroyed | neither Gram-negative nor Gram-positive cell walls were destroyed |  |  |  |  |  |  | destruction of Gram-positive cell walls ([2]; 247.5 mM increased by about 50% or more): destruction of Gram-positive cell walls
N#CS.N=C(N)N [GuaSCN, Guanidine thiocyanate, reference compound] |  |  |  |  | ineffective | destroyed | ineffective | destroyed | 
1-butyl-3-methyl-imidazolium-thiocyanate [BMIM-SCN] |  |  | destroy the cell walls of both Gram-positive and Gram-negative cells | destroy the cell walls of both Gram-positive and Gram-negative cells | falls short of destroying bacterial cell walls | destroyed | falls short of destroying bacterial cell walls | destroyed | destruction of Gram-negative cell walls ([1]; about 562.5 mM in the mixture): lysed
